Literature values as cited in patent US7829124B2, “Use of Phyllanthus constituents for treating or preventing infections caused by hepatitis B-viruses” (priority 2001, dated 2010).

Columns and labels:
Bacillus subtilis = conditions: 0.1 ml; extract 50 mg/ml, streptomycin 10 mg/ml
Staphylococcus aureus = conditions: 0.1 ml; extract 50 mg/ml, streptomycin 10 mg/ml
[1] = system: CA^2+-dependent protein kinase of the wheat embryo
[2] = molecular target: T1, cAMP-dependent protein kinase of the rat liver (Rattus norvegicus, UniProt P27791)
T1 construct: the cAMP-dependent protein kinase of the rat liver; host or cells: rat liver

[3] = system: CA^2+- and phopholipid-dependent protein kinase C (PKC) of the rat brain
HBV = conditions: chronically infected patients

Molecule | inhibition zone (Bacillus subtilis) | inhibition zone (Staphylococcus aureus) | inhibition of CA^2+-dependent protein kinase [1] | inhibition of cAMP-dependent protein kinase [2] | inhibition of protein kinase C (PKC) [3] | cases in which the virus is eliminated from the liver (HBV) | further cases with clearly reduced number of viruses in the blood (HBV)
[H]/N=C(/N)N[C@H]1[C@H](O)[C@@H](O)[C@H](O[C@@H]2O[C@@H](C)[C@](O)(C=O)[C@H]2O[C@@H]2O[C@@H](CO)[C@H](O)[C@@H](O)[C@@H]2NC)[C@@H](N/C(N)=N\[H])[C@@H]1O [streptomycin] | 35 mm | 35 mm |  |  |  |  | 
phenazine-derivative of the geraniin |  |  | most effective | most effective | most effective |  | 
O=C1O[C@H]2[C@@H]3OC(=O)c4cc(O)c(O)c(O)c4-c4c(cc(O)c(O)c4O)C(=O)OC[C@H]2O[C@@H](OC(=O)c2cc(O)c(O)c(O)c2)[C@@H]3OC(=O)c2cc(O)c(O)c3c2[C@@H]2C1=CC(=O)[C@](O)(O3)C2(O)O [geraniin] |  |  | most effective | most effective | most effective |  | 
interferon α |  |  |  |  |  | 20-30% | 30%
O=C1OC2C3OC(=O)C4=CC(=O)C5(O)Oc6c(O)c(O)cc(c6C4C5(O)O)C(=O)OC2C(OC(=O)c2cc(O)c(O)c(O)c2)OC3COC(=O)c2cc(O)c(O)c3c2C2C1=CC(=O)C(O)(O3)C2(O)O (stereo not shown) [amariin] |  |  | most effective | most effective | most effective |  | 
